What all share (assay): NCI-60 cell line screen, 48 h
Test [1] relates to OVCAR-4 ovarian.
Test [2] deals with SK-MEL-2 melanoma.
Test [3] relates to UACC-62 melanoma.
Test [4] relates to CCRF-CEM leukemia.
In test [5] the test system is UO-31 renal.
Test [6] concerns RPMI-8226 leukemia.
In test [7] the test system is OVCAR-8 ovarian.
The subject of test [8] is MALME-3M melanoma.
Test [9] concerns RXF 393 renal.
Test [10] concerns NCI-H23 lung.

Molecules are shown by their SMILES.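 In this assay, cells in 96-well plates receive the compound at five concentrations for 48 hours. Endpoints are linearly interpolated between the surrounding concentrations. Here, GI50 denotes the concentration required for 50% inhibition of growth. TGI marks complete inhibition of growth.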

With `Nc1ccc(/C=N/Nc2ccnc3c(N)cccc23)c2cccnc12`, the GI50 was 1.54 µM in test [1], 1.7 µM in test [2], 1.73 µM in test [3] and 0.316 µM in test [4]. For the same molecule, the TGI came out at 3.35 µM in test [1], 3.25 µM in test [2], 3.37 µM in test [3] and 2.31 µM in test [4].
`O=C1C(=O)C(Br)(Br)C(Br)=C1Br`: the TGI in test [5] was 33.5 µM; in test [1], 69.6 µM; in test [2] it was 33.7 µM; in [6] it was 99.5 µM; in test [7], 36.6 µM; in [8] it was 35.4 µM. Moreover, the TGI is 33.6 µM in [3] and 57.1 µM in [4].
Regarding `COc1ccc(/C=C2\CCC(C)(CN(C)C)C2=O)cc1` (centres undefined), the TGI in [5], in [1], in test [2], in test [6], in test [9] and in test [7] was over 100 µM each time. Moreover, the TGI in test [8], in test [3] and in [10] was over 100 µM in each case.
Turning to `NCCC(O)(P(=O)(O)O)P(=O)(O)O`, the GI50 in [5] was over 100 µM; in test [1], over 100 µM; in [2], 4.43 µM; in [6] it was over 100 µM; in [7], 3.47 µM; in test [8], over 100 µM. In addition, the GI50 in [3] is 29.1 µM; in [10], over 100 µM; in test [4] it was over 100 µM. Further, the TGI in test [5] is over 100 µM; in [1], over 100 µM; in test [2], 43.8 µM; in test [6] it was over 100 µM; in test [7] it was 35.6 µM; in test [8], over 100 µM. Further, the TGI in test [3], in test [10] and in test [4] was over 100 µM throughout.
As for `O=c1c2ccccc2c2nc3ccccc3nc2n1C1CCCCC1`, the TGI in [5], in test [1], in test [2], in [6], in [9] and in test [7] was over 100 µM each time. In addition, the TGI in test [8], in [3] and in [10] was over 100 µM in each case.
On to `CC(=O)N=c1ccc2nc3c(cc(N)c4ccccc43)oc-2c1`, for which the GI50 was 1.03 µM in test [5]; 0.409 µM in test [1]; 1.57 µM in test [2]; 0.302 µM in test [6]; 1.31 µM in test [7]; 1.39 µM in [8]. The figures for the GI50 in test [3], in [10] and in [4] were 1.41 µM, 1.27 µM and 0.7 µM, respectively. Also, the TGI in test [5] is 2.46 µM; in [1] it was 1.64 µM; in test [2], 3.34 µM; in test [6], 1.76 µM; in [7] it was 3.6 µM; in test [8] it was 2.84 µM. The results for the TGI in test [3], in test [10] and in test [4] were 2.72 µM, 4.25 µM and 5.65 µM, respectively.
As for `COc1cc(-n2cc(-c3ccc(Cl)cc3)[nH]c2=O)cc(OC)c1OC`, the GI50 in test [5] is 22.5 µM; in test [1], 25.9 µM; in test [2], 72.6 µM; in test [6], 12.6 µM; in [7], 26.5 µM; in [8], 32 µM. In addition, the GI50 in test [3] is 23 µM; in test [10], 49.5 µM. For the same molecule, the TGI was 64.4 µM in test [5]; 62.9 µM in test [1]; over 100 µM in test [2]; over 100 µM in [6]; 68.9 µM in [7]; 77.4 µM in test [8]. Further, the TGI was 64.1 µM in test [3] and over 100 µM in [10].
On to `N#CCCN(c1ccc(-c2nnc(NC(=O)CNNC(=O)CC(=O)Nc3ccccc3)s2)cc1)S(=O)(=O)c1ccccc1`, for which the TGI in test [5], in [1], in test [2], in [6], in test [7] and in test [8] was over 100 µM each time. The TGI in test [3], in test [10] and in [4] was over 100 µM each time.
Regarding `O=C(Nc1nc2ncn(CC(COc3ccccc3)OC(=O)c3ccccc3)c2c(=O)[nH]1)c1ccccc1` (centres undefined), the TGI in [5], in test [1], in test [2], in test [6], in [9] and in test [7] was over 100 µM throughout. For the same molecule, the TGI in [8] and in test [3] was over 100 µM in each case.
For the molecule `O=C(Nc1c(O)[nH]c(=S)[nH]c1=O)c1ccc2ccccc2n1`, the TGI in test [5], in test [1], in [6], in test [7], in test [8] and in test [3] was over 100 µM in each case. The TGI in test [10] and in test [4] was over 100 µM throughout.
In the case of `CCOC(=O)/C(=C/c1ccc(C#N)cc1)N(CC)CC`, the TGI in [5], in test [1], in [2], in test [6], in test [7] and in test [8] was over 100 µM each time. Further, the TGI in test [3], in test [10] and in [4] was over 100 µM each time.
`NC(=S)N/N=C1/C(=O)N(c2ccc(Cl)cc2Cl)C(=O)C(=O)C1c1nc2ccccc2s1` (centres undefined): the TGI in test [5], in [1], in [2], in test [6], in test [9] and in test [7] was over 100 µM throughout. The TGI in test [8], in test [3] and in [10] was over 100 µM throughout.

(Values after PubChem BioAssay (NCI).)
